Results on three substances are retold here after patent publication US8470765B2, “Polypeptides and antibacterial or antiseptic use of same” (AnGes MG, Inc., priority 2009, dated 2013).

For data set [1], the system named is Enterobacter aerogenes JCM 1235. Kind of data set: microbe, parasite or virus in culture. The format is cell-based. In outline: (§1)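 MIC values were read visually as the minimum concentration preventing growth after 16 to 24 hours at 37° C. Cultures in Mueller-Hinton broth held about 10^5 CFU/mL, and peptides were tested in MHB starting from a 128 μg/mL solution.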

Data set [2] has as its system Escherichia coli ATCC 25922. Kind of data set: microbe, parasite or virus in culture. The format is cell-based. In outline: as §1
Data set [3] concerns Klebsiella pneumoniae JCM 1662. Kind of data set: microbe, parasite or virus in culture. The format is cell-based. To be noted: JCM 1662. In outline: as §1
Data set [4] has as its system Pseudomonas aeruginosa ATCC 27853. Kind of data set: microbe, parasite or virus in culture. It is filed as cell-based. The settings on record: ATCC 27853. In outline:
as §1

For data set [5], the system named is Staphylococcus aureus ATCC29213. Kind of data set: microbe, parasite or virus in culture. It is filed as cell-based. The settings on record: ATCC29213. In outline: as §1
Data set [6] has as its system Staphylococcus epidermidis JCM 2414. Description: microbe, parasite or virus in culture. It is filed as cell-based. In outline:
as §1

Data set [7] has as its system Enterobacter cloacae JCM 1232. It is filed as cell-based. On the procedure:
Bacteria (Escherichia coli ATCC 25922, Pseudomonas aeruginosa ATCC 27853, Staphylococcus aureus ATCC29213, Klebsiella pneumoniae JCM 1662, Enterobacter cloacae JCM 1232, Enterobacter aerogenes JCM 1235 and Staphylococcus epidermidis JCM 2414) were inoculated to Mueller-Hinton broth: MHB or LB medium, and cultured at a temperature and period suited for each strain. From the thus obtained colonies, each strain was inoculated to a fresh liquid medium and cultured for 16 to 20 hours. Then an aliquot having a volume (10 to 50 appropriate to each strain was inoculated to a fresh liquid medium and cultured for 4 to 6 hours, followed by the measurement of the absorbance at 600 nm. After comparing the turbidity with McFarland #0.5, the resultant was diluted with a medium. Each strain was added to about 10^5 CFU/mL (final concentration). Each of the peptide solutions to be tested was diluted with MHB to obtain a solution of 128 μg/mL. […] As controls, tobramycin (TOB: aminoglucoside antibiotic), oxacillin (OX:β-lactam antibiotic), meropenem (MEPM: carbapenem antibiotic) and ciprofloxacin (new quinolone antibiotic) were used. […] To a 96-well microtiter plate, 0.1 mL of the inoculation solution and 0.1 mL of the peptide- or positive control-containing medium having the respective concentration were added, and cultured at 37° C. for 16 to 24 hours (or a time period suited for the growth of the respective strain). The well not containing the sample was used as a negative control. After the culturing, the growth was visually observed, and the minimum concentration at which the growth was inhibited was defined as the minimum growth inhibition concentration (MIC). The medium used in this test for bacteria was Mueller-Hinton broth. Independent experiments were carried out twice or more for each strain.

Data set [8] has as its system Escherichia coli ATCC 25922. Kind of data set: ATP Assay (viability at 3 hours), Table 6. It is filed as cell-based. The settings on record: 3 h, 5 μg/mL. A digest of the protocol: (§2)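 Log-phase bacteria at about 10^5 CFU/mL final in Mueller-Hinton broth were exposed 3 h at 37 °C to peptide (solution prepared at 10 μg/mL before 1:1 mixing with inoculum). ATP (BacTiter-Glo luminescence) relative to untreated wells defined viability; two independent experiments.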

The subject of data set [9] is Pseudomonas aeruginosa ATCC 27853. Description: ATP Assay (viability at 3 hours), Table 6. The format is cell-based. To be noted: 3 h, 5 μg/mL. In outline:
as §2

The test system of data set [10] is Staphylococcus aureus ATCC29213. Kind of data set: ATP Assay (viability at 3 hours), Table 6. To be noted: 3 h, 5 μg/mL. The format is cell-based. A digest of the protocol: as §2
In data set [11] the test system is Micrococcus luteus NBRC13867.
The test system of data set [12] is Salmonella enteritidis IID 604.
In data set [13] the test system is Streptococcus pyogenes JCM5674.
The subject of data set [14] is Actinobacillus actinomycetemcomitans JCM2434.
Data set [15] concerns Alternaria alternata JCM5800. To be noted: JCM5800.
For data set [16], the system named is Trichophyton mentagrophytes NBRC6124. The settings on record: NBRC6124.
The test system of data set [17] is Cryptococcus neoformans IFM 46660. The settings on record: IFM 46660.
Data set [18] has as its system Rhizopus oryzae NBRC 31005.
[19] abbreviates: Table 4, two tests, first/second value where not identical.

Read-outs that look alike come from different tables or passages of the source. No end group written: not given here.

KLIFLRELRRLRKRLKRKLR-NH2 [SRP-16]: the “MIC Enterobacter aerogenes” value in [1] (setting [19]) is given as 16/32. For the same substance, the “MIC Escherichia coli” value in data set [2] (setting [19]) was 16/32. The substance further came in with an MIC Klebsiella pneumoniae in data set [3] of 64 µg/mL. In data set [4], this substance came in with an MIC Pseudomonas aeruginosa of 16 µg/mL. This substance also registered an MIC Staphylococcus aureus in data set [5] of 16 µg/mL. Also, the “MIC Staphylococcus epidermidis” value in [6] (setting [19]) is 8/16. This substance gave an MIC Enterobacter cloacae in data set [7] (JCM 1232) of 64 µg/mL. For the same substance, the “Escherichia coli ATP (viability, relative value to negative control)” value in data set [8] is 0.9. Moreover, the “Pseudomonas aeruginosa ATP (viability, relative value to negative control)” value in [9] is given as 1.0. Besides, the “Staphylococcus aureus ATP (viability, relative value to negative control)” value in data set [10] came out at 0.4. Besides, the MIC Micrococcus luteus in [11] stood at 2 µg/mL. The substance further came in with an MIC Salmonella Enteritidis in data set [12] (IID 604) of 4 µg/mL. Also, the MIC Streptococcus pyogenes in data set [13] worked out at 32 µg/mL. In addition, the MIC Actinobacillus actinomycetemcomitans in data set [14] was 128 µg/mL. This substance also had an MIC Alternaria alternata in data set [15] of 64 µg/mL. The substance also came in with an MIC Trichophyton mentagrophytes in [16] of 32 µg/mL. The MIC Cryptococcus neoformans in data set [17] was found to be 2 µg/mL. In data set [18] (setting [19]), the “MIC Rhizopus oryzae” value is reported as 8/16.
As to KLIFLHRLKRELRKRLKRKLR-NH2 [SRP-13], in data set [1] (setting [19]), the “MIC Enterobacter aerogenes” value is 16/64. The “MIC Escherichia coli” value in [2] (setting [19]) is listed as 16/32. The MIC Klebsiella pneumoniae in data set [3] turned out to be 32 µg/mL. The MIC Pseudomonas aeruginosa in data set [4] is 16 µg/mL. In addition, the MIC Staphylococcus aureus in data set [5] is 32 µg/mL. The “MIC Staphylococcus epidermidis” value in data set [6] (setting [19]) was 4/8. Further, the “MIC Enterobacter cloacae” value in data set [7] (setting [19]) is recorded as 32/64. Also, the “Escherichia coli ATP (viability, relative value to negative control)” value in [8] is listed as 2.2. Besides, the “Pseudomonas aeruginosa ATP (viability, relative value to negative control)” value in data set [9] was determined as 2.2. In data set [10], the “Staphylococcus aureus ATP (viability, relative value to negative control)” value is on record as 2.0. Besides, the MIC Micrococcus luteus in data set [11] stood at 2 µg/mL. The substance further yielded an MIC Salmonella Enteritidis in [12] (IID 604) of 4 µg/mL. In data set [13], this substance displayed an MIC Streptococcus pyogenes of 32 µg/mL. In [14], this substance yielded an MIC Actinobacillus actinomycetemcomitans of 128 µg/mL. Also, the MIC Alternaria alternata in data set [15] is 64 µg/mL. The same substance showed an MIC Trichophyton mentagrophytes in data set [16] of 32 µg/mL. Besides, the MIC Cryptococcus neoformans in data set [17] was found to be 2 µg/mL. Moreover, the MIC Rhizopus oryzae in [18] (NBRC 31005) stood at 8 µg/mL.
In [1] (JCM 1235), GRLKRMGERLKRKIQKWIRW-NH2 [SRP-15] gave an MIC Enterobacter aerogenes of 16 µg/mL. This substance also registered an MIC Escherichia coli in data set [2] (ATCC 25922) of 16 µg/mL. Moreover, in data set [3], the MIC Klebsiella pneumoniae was 16 µg/mL. Further, in data set [4], the MIC Pseudomonas aeruginosa stood at 16 µg/mL. The MIC Staphylococcus aureus in [5] was 16 µg/mL. Also, in data set [6] (JCM 2414), the MIC Staphylococcus epidermidis was determined as 8 µg/mL. Besides, the “MIC Enterobacter cloacae” value in data set [7] (setting [19]) is on record as 16/32. The “Escherichia coli ATP (viability, relative value to negative control)” value in [8] came out at 0.5. Also, the “Pseudomonas aeruginosa ATP (viability, relative value to negative control)” value in [9] is recorded as 1.6. In addition, the “Staphylococcus aureus ATP (viability, relative value to negative control)” value in data set [10] is reported as 0.3. Further, the MIC Micrococcus luteus in [11] was 4 µg/mL. For the same substance, in [12] (setting [19]), the “MIC Salmonella Enteritidis” value is 8/16. In data set [13], this substance showed an MIC Streptococcus pyogenes of 16 µg/mL. In [14], this substance returned an MIC Actinobacillus actinomycetemcomitans of 32 µg/mL. In data set [15], the MIC Alternaria alternata was 64 µg/mL. Also, in data set [16], the MIC Trichophyton mentagrophytes is 32 µg/mL. This substance also showed an MIC Cryptococcus neoformans in data set [17] of 2 µg/mL. Further, the MIC Rhizopus oryzae in data set [18] (NBRC 31005) turned out to be 16 µg/mL.
